Experimental data: the NIST ThermoML archive (doi:10.1016/j.jct.2014.02.021)
“And” between values parts separate entries of the source, which are not always exact repeats. Equal entries are not always repeated. Numbers after ± are expanded uncertainties.

What was measured:
[1] = 298.15 K; 101 kPa; Liquid; Vibrating tube method
[2] = xn = mol fraction of the nth substance listed; conditions: 298.15 K, 101 kPa, Liquid, Vibrating tube method

## CC#N [acetonitrile]
[1]
  mass density: 776.615 ± 1 kg/m3

## CO [methanol] + CN(C)C=O
[2]; x2 = 0
  mass density: 786.58 ± 1 kg/m3

## CC1COC(=O)O1 (configuration not stated) [4-methyl-1,3-dioxolan-2-one]
[1]
  mass density: 1199.49 ± 1 kg/m3

## CN(C)C=O [dimethylformamide]
[1]
  mass density: 943.974 ± 1 kg/m3

## CN(C)C=O [dimethylformamide] + CO
[2]; x1 = 0.0496
  mass density: 803.451 ± 1 kg/m3
[2]; x1 = 0.0502
  mass density: 803.39 ± 1 kg/m3
[2]; x1 = 0.0511
  mass density: 803.056 ± 1 kg/m3
[2]; x1 = 0.0991
  mass density: 818.484 ± 1 kg/m3
[2]; x1 = 0.1021
  mass density: 818.46 ± 1 kg/m3
[2]; x1 = 0.1084
  mass density: 818.189 ± 1 kg/m3
[2]; x1 = 0.1981
  mass density: 843.566 ± 1 kg/m3
[2]; x1 = 0.1988
  mass density: 843.761 ± 1 kg/m3
[2]; x1 = 0.2004
  mass density: 843 ± 1 kg/m3
[2]; x1 = 0.4022
  mass density: 882.138 ± 1 kg/m3 and 881.976 ± 1 kg/m3
[2]; x1 = 0.4054
  mass density: 881.38 ± 1 kg/m3
[2]; x1 = 0.4986
  mass density: 896.174 ± 1 kg/m3
[2]; x1 = 0.5002
  mass density: 894.978 ± 1 kg/m3
[2]; x1 = 0.5013
  mass density: 896.278 ± 1 kg/m3
[2]; x1 = 0.5982
  mass density: 909.277 ± 1 kg/m3
[2]; x1 = 0.6008
  mass density: 908.588 ± 1 kg/m3
[2]; x1 = 0.6031
  mass density: 909.254 ± 1 kg/m3
[2]; x1 = 0.7998
  mass density: 928.355 ± 1 kg/m3
[2]; x1 = 0.8028
  mass density: 928.308 ± 1 kg/m3
[2]; x1 = 0.8054
  mass density: 928.317 ± 1 kg/m3
[2]; x1 = 0.8997
  mass density: 936.786 ± 1 kg/m3
[2]; x1 = 0.9033
  mass density: 936.655 ± 1 kg/m3
[2]; x1 = 0.9039
  mass density: 936.718 ± 1 kg/m3
[2]; x1 = 1
  mass density: 943.974 ± 1 kg/m3

## CC#N [acetonitrile] + CO
[2]; x1 = 0.0992
  mass density: 787.14 ± 1 kg/m3
[2]; x1 = 0.1002
  mass density: 787.104 ± 1 kg/m3
[2]; x1 = 0.1075
  mass density: 787.149 ± 1 kg/m3
[2]; x1 = 0.197
  mass density: 786.692 ± 1 kg/m3
[2]; x1 = 0.1984
  mass density: 786.63 ± 1 kg/m3
[2]; x1 = 0.2008
  mass density: 786.647 ± 1 kg/m3
[2]; x1 = 0.4002
  mass density: 784.701 ± 1 kg/m3
[2]; x1 = 0.4004
  mass density: 784.66 ± 1 kg/m3
[2]; x1 = 0.4013
  mass density: 784.644 ± 1 kg/m3
[2]; x1 = 0.465
  mass density: 784.22 ± 1 kg/m3
[2]; x1 = 0.4653
  mass density: 784.25 ± 1 kg/m3
[2]; x1 = 0.5041
  mass density: 783.427 ± 1 kg/m3
[2]; x1 = 0.5042
  mass density: 783.347 ± 1 kg/m3
[2]; x1 = 0.5047
  mass density: 783.356 ± 1 kg/m3
[2]; x1 = 0.601
  mass density: 782.103 ± 1 kg/m3 and 782.009 ± 1 kg/m3
[2]; x1 = 0.6056
  mass density: 781.935 ± 1 kg/m3
[2]; x1 = 0.7992
  mass density: 779.248 ± 1 kg/m3
[2]; x1 = 0.8012
  mass density: 779.292 ± 1 kg/m3
[2]; x1 = 0.8067
  mass density: 779.242 ± 1 kg/m3
[2]; x1 = 0.9007
  mass density: 777.825 ± 1 kg/m3
[2]; x1 = 0.9044
  mass density: 777.935 ± 1 kg/m3
[2]; x1 = 0.9049
  mass density: 777.896 ± 1 kg/m3
[2]; x1 = 0.9358
  mass density: 777.391 ± 1 kg/m3
[2]; x1 = 0.9376
  mass density: 777.347 ± 1 kg/m3
[2]; x1 = 0.9382
  mass density: 777.385 ± 1 kg/m3
[2]; x1 = 1
  mass density: 776.615 ± 1 kg/m3

## CC1COC(=O)O1 (configuration not stated) [4-methyl-1,3-dioxolan-2-one] + CO
[2]; x1 = 0.0484
  mass density: 828.25 ± 1 kg/m3
[2]; x1 = 0.0497
  mass density: 828.25 ± 1 kg/m3
[2]; x1 = 0.051
  mass density: 829.62 ± 1 kg/m3
[2]; x1 = 0.0987
  mass density: 871.34 ± 1.1 kg/m3
[2]; x1 = 0.0991
  mass density: 870.05 ± 1 kg/m3
[2]; x1 = 0.0999
  mass density: 869.111 ± 1.1 kg/m3
[2]; x1 = 0.1972
  mass density: 932.83 ± 1.1 kg/m3
[2]; x1 = 0.1991
  mass density: 936.46 ± 1.1 kg/m3
[2]; x1 = 0.2001
  mass density: 939.29 ± 1.1 kg/m3
[2]; x1 = 0.3942
  mass density: 1035.57 ± 1.1 kg/m3
[2]; x1 = 0.3998
  mass density: 1021.45 ± 20 kg/m3
[2]; x1 = 0.4001
  mass density: 1037.34 ± 1 kg/m3
[2]; x1 = 0.4998
  mass density: 1069.62 ± 1 kg/m3
[2]; x1 = 0.5022
  mass density: 1072.85 ± 1 kg/m3
[2]; x1 = 0.505
  mass density: 1072.84 ± 1 kg/m3
[2]; x1 = 0.598
  mass density: 1103.43 ± 1 kg/m3
[2]; x1 = 0.6017
  mass density: 1106.39 ± 1 kg/m3
[2]; x1 = 0.6049
  mass density: 1103.9 ± 1 kg/m3
[2]; x1 = 0.7939
  mass density: 1159.25 ± 1 kg/m3
[2]; x1 = 0.7979
  mass density: 1159.25 ± 1 kg/m3
[2]; x1 = 0.8009
  mass density: 1158.72 ± 1 kg/m3
[2]; x1 = 0.9
  mass density: 1179.23 ± 1 kg/m3
[2]; x1 = 0.9011
  mass density: 1179.68 ± 1 kg/m3
[2]; x1 = 0.9031
  mass density: 1179.23 ± 1 kg/m3
[2]; x1 = 1
  mass density: 1199.49 ± 1 kg/m3

## CO [methanol]
[1]
  mass density: 786.58 ± 1 kg/m3

## CO [methanol] + CC#N
[2]; x2 = 0
  mass density: 786.58 ± 1 kg/m3

## CO [methanol] + CC1COC(=O)O1
[2]; x2 = 0
  mass density: 786.58 ± 1 kg/m3
